Test results reported in BindingDB's records for doi:10.1016/j.bmcl.2008.12.050 (Merck Research Laboratories, 2009).
Structures can show the parent of a compound that is named as a salt.

experiment: Antagonist activity at human CCR2 receptor expressed in CHO cells by chemotaxis assay

| IC50 | Compound |
| --- | --- |
| 1 nM | CC(C)[C@]1(C(=O)NCc2cc(C(F)(F)F)cc(C(F)(F)F)c2)CC[C@@H](NC2CCOCC2C(F)(F)F)C1 (stereo partly drawn) [(1S,3R)-N-(3,5-bis(trifluoromethyl)benzyl)-1-isopropyl-3-(3-(trifluoromethyl)tetrahydro-2H-pyran-4-ylamino)cyclopentanecarboxamide] |
| 0.8 nM | CC(C)[C@]1(C(=O)NCc2cc(C(F)(F)F)cc(C(F)(F)F)c2)CC[C@@H](NC2CCOCC2F)C1 (stereo partly drawn) [(1S,3R)-N-(3,5-bis(trifluoromethyl)benzyl)-3-(3-fluorotetrahydro-2H-pyran-4-ylamino)-1-isopropylcyclo pentanecarboxamide] |
| 0.3 nM | CCC1COCCC1N[C@@H]1CC[C@@](C(=O)NCc2cc(C(F)(F)F)cc(C(F)(F)F)c2)(C(C)C)C1 (stereo partly drawn) [(1S,3R)-N-(3,5-bis(trifluoromethyl)benzyl)-3-(3-ethyltetrahydro-2H-pyran-4-ylamino)-1-isopropylcyclopentanecarboxamide] |

Continued, molecule first:

| Compound | IC50 |
| --- | --- |
| CC(C)[C@]1(C(=O)NCc2cc(C(F)(F)F)cc(C(F)(F)F)c2)CC[C@@H](NC2COC2)C1 [(1S,3R)-N-(3,5-bis(trifluoromethyl)benzyl)-1-isopropyl-3-(oxetan-3-ylamino)cyclopentanecarboxamide trifluoroacetate] | 3.3 nM |
| CC1COCCC1N[C@@H]1CC[C@@](C(=O)NCc2cc(C(F)(F)F)cc(C(F)(F)F)c2)(C(C)C)C1 (stereo partly drawn) [(1S,3R)-N-(3,5-bis(trifluoromethyl)benzyl)-1-isopropyl-3-(3-methyltetrahydro-2H-pyran-4-ylamino)cyclopentanecarboxamide] | 0.1 nM |
| CCCC1COCCC1N[C@@H]1CC[C@@](C(=O)NCc2cc(C(F)(F)F)cc(C(F)(F)F)c2)(C(C)C)C1 (stereo partly drawn) [(1S,3R)-N-(3,5-bis(trifluoromethyl)benzyl)-1-isopropyl-3-(3-propyltetrahydro-2H-pyran-4-ylamino)cyclopentanecarboxamide] | 5.1 nM |
